Among the data in PubChem BioAssay (NCI) are TGI and GI50 values, retold here.

Values after ≈ are worked out from the molar mass of the structure shown.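 1) Cells in 96-well plates. 2) Compound, 48 h, 5 concentrations. 3) Linear interpolation between surrounding doses. 4) Unreached endpoint = highest concentration. The concentration for 50% growth inhibition is given as GI50. Definition used: TGI = concentration required for complete inhibition of growth.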

What all share (assay): NCI-60 cell line screen, 48 h
The test system of assay [1] is COLO 205 colon.
Assay [2] has as its system HCT-116 colon.
Assay [3] concerns OVCAR-4 ovarian.
For assay [4], the system named is RXF 393 renal.
Assay [5] has as its system SF-539 CNS.
For assay [6], the system named is SK-MEL-28 melanoma.
Assay [7] relates to SN12C renal.
Assay [8] relates to SW-620 colon.
Assay [9] has as its system UACC-257 melanoma.
Assay [10] concerns UACC-62 melanoma.

Consider `CO/N=C1\CC(NC(=O)C(F)(F)F)c2ccsc21` (stereo unspecified), for which the TGI in assay [1], in assay [2], in [3], in [4], in assay [5] and in [6] was > 100 µM throughout. Further, the TGI in assay [7], in assay [8], in assay [9] and in assay [10] was > 100 µM in each case.

Regarding `COC(=O)C(Cc1cn(C(C)n2cc(CC(NC(C)=O)C(=O)OC)c3ccccc32)c2ccccc12)NC(C)=O` (stereo unspecified), the TGI in assay [1], in [2], in assay [3], in assay [6], in assay [7] and in assay [8] was > 100 µM throughout. In addition, the TGI in assay [9] and in assay [10] was > 100 µM in each case.

For the compound `O=c1oc2ccccc2c(O)c1Cc1ccc(Cc2c(O)c3ccccc3oc2=O)cc1`, the TGI in assay [1], in assay [2], in assay [3], in [4], in [5] and in [6] was > 100 µM each time. The TGI in [7], in assay [8], in [9] and in [10] was > 100 µM each time.

Turning to `O=C(O)c1nc2ccc(C(F)(F)F)cc2[nH]c1=O`, the TGI in [1], in assay [2], in assay [3], in assay [4], in assay [5] and in assay [6] was > 100 µM in each case. The TGI in [7], in [8], in assay [9] and in assay [10] was > 100 µM each time.

On to `CCOC(=O)c1csc(NC(=O)C(C)N2CCCC2)n1` (stereo unspecified), for which the TGI in assay [1], in assay [3], in assay [4], in assay [5], in assay [6] and in assay [8] was > 100 µM each time. Moreover, the TGI in [9] and in [10] was > 100 µM throughout.

With `CC(=O)NNc1nc(C)c(C(=O)NNC(=O)C(=O)Nc2ccc([N+](=O)[O-])cc2[N+](=O)[O-])s1`, the TGI in [1], in assay [2], in [3], in assay [4], in assay [5] and in assay [6] was > 100 µM throughout. Also, the TGI in assay [7], in [8], in [9] and in [10] was > 100 µM each time.

Regarding `O=C1NN(C2=NNC3(C(=O)N2)c2ccccc2-c2ccccc23)C(c2ccccc2)=N/C1=C/c1ccc(Cl)cc1`, the GI50 in [1] is 69.2 µg/mL (≈ 127 µM); in assay [2] it was 51.2 µg/mL (≈ 94 µM); in assay [3], 62.8 µg/mL (≈ 115 µM); in assay [4] it was 56.9 µg/mL (≈ 104 µM); in assay [5] it was 50.9 µg/mL (≈ 93.4 µM); in assay [6], 63 µg/mL (≈ 116 µM). Besides, the GI50 in [7] was 53.5 µg/mL (≈ 98.2 µM); in assay [8], 52.8 µg/mL (≈ 96.9 µM); in assay [9], 68 µg/mL (≈ 125 µM); in assay [10], 29.8 µg/mL (≈ 54.7 µM). Besides, the TGI in assay [1], in assay [2], in [3], in assay [4], in assay [5] and in assay [6] was > 150 µg/mL throughout. Also, the TGI in assay [7] is > 150 µg/mL; in assay [8] it was > 150 µg/mL; in [9] it was > 150 µg/mL; in assay [10], 65.6 µg/mL.
